Results: US10000456B2, “Polycyclic compounds as lysophosphatidic acid receptor antagonists” (AMIRA PHARMACEUTICALS, INC., priority 2009, dated 2018)
pIC50: −log10 of the molar value.

Columns and labels:
[1] = system: bleomycin-induced lung fibrosis; test: Bleomycin-induced lung fibrosis model in mice; assay type: in vivo; conditions: acute setting (3 day)
From the text: Female C57Bl/6 mice (Harlan, 25-30 g) are housed 4 per cage, given free access to food and water and allowed to acclimate for at least 7 days prior to test initiation. After the habituation phase, mice are lightly anesthetized with isoflurane (5% in 100% O2) and administered with bleomycin sulfate (0.01-5 U/kg, Henry Schein) via intratracheal instillation (Cuzzocrea, S. et al., Am. J. Physiol. Lung. Cell. Mol. Physiol., 292(5):[…]-[…] (Epub Jan. 12, 2007)). Mice are returned to their cages and monitored daily for the duration of the experiment. Test compound or vehicle is delivered p.o., i.p. or s.c. daily. The route and frequency of dosing is based on previously determined pharmacokinetic properties. […] BALF is analyzed for concentrations of inflammatory, pro-fibrotic and tissue injury biomarkers including transforming growth factor 131, hyaluronic acid, tissue inhibitor of metalloproteinase-1, matrix matelloproteinase-7, connective tissue growth factor and lactate dehydrogenase activity, using commercially available ELISA. […] Total cell counts are then obtained using a HEMAVET® hematology system (Drew Scientific, Wayne, Pa.) and differential cells counts are determined using Shandon cytospin (Thermo Scientific, Waltham, Mass.). […] The data are plotted using GraphPad Prism and statistical differences between groups determined.

[2] = system: A2058 human melanoma cells; test: LPA1 chemotaxis assay; assay type: cell-based; conditions: LPA 100 nM, read-out: IC50, inhibition of LPA-driven chemotaxis
Procedure: Chemotaxis of the A2058 human melanoma cells was measured using the Neuroprobe CHEMOTX® System plates ([…], 5.7 mm diameter sites). The filter sites were coated with 0.001% fibronectin (Sigma) in 20 mM Hepes, pH 7.4 and allowed to dry. A2058 cells were serum-starved for 24 hours, then harvested with Cell Stripper and resuspended in DMEM containing 0.1% fatty-acid-free bovine serum albumin (BSA) to a concentration of 1×10^6/ml. Cells were mixed with an equal volume of test compound (2×) in DMEM containing 0.1% fatty-acid-free BSA and incubated at 37° C. for 15 minutes. LPA (100 nM in DMEM containing 0.1% fatty-acid-free BSA) or vehicle was added to each well of the lower chamber and 50 μl of the cell suspension/test compound mix was applied to the upper portion of the CHEMOTX® plate. Plates were incubated at 37° C. for three hours and then the cells removed from the upper portion by rinsing with PBS and scraping. The filter was dried then stained with HEMA 3® Staining System (Fisher Scientific). The absorbance of the filter was read at 590 nm and IC50s were determined using SYMYX® Assay Explorer.

[3] = target: T1, human LPA1 (Homo sapiens, UniProt Q92633); test: LPA1 calcium flux assay (HLPA1 Ca Flux); assay type: cell-based; conditions: CHO cells expressing human LPA1, stimulated with 10 nM LPA
T1 construct: the full-length cDNA for human LPA1 was obtained by PCR of the reverse transcription reaction; expressed in transfected cells
Procedure: A 1.1 kb cDNA encoding the human LPA1 receptor was cloned from human lung. Human lung RNA (Clontech Laboratories, Inc. USA) was reverse transcribed using the RETROSCRIPT® kit (Ambion, Inc.) and the full-length cDNA for human LPA1 was obtained by PCR of the reverse transcription reaction. The nucleotide sequence of the cloned human LPA1 was determined by sequencing and confirmed to be identical to the published human LPA1 sequence (An et al., Biochem. Biophys. Res. Commun., 231:619 (1997). The cDNA was cloned into the pcDNA5/FRT expression plasmid and transfected in CHO cells using Lipofectamine 2000 (Invitrogen Corp., USA). Clones stably expressing human LPA1 were selected using hygromycin and identified as cells that show Ca-influx in response to LPA.
Human LPA1 or LPA3 expressing CHO cells are seeded at 20,000-45,000 cells per well in a 96-well poly-D-lysine coated plate one or two days before the assay. Prior to the assay, the cells are washed once with PBS and then cultured in serum-free media overnight. […] Cells are the stimulated by the addition of 10 nM LPA and intracellular Ca^2+ measured using the FLEXSTATION® 3 (Molecular Devices). IC50s are determined using GraphPad prism analysis of drug titration curves.

[4] = system: highly peritoneal metastatic pancreatic cancer cell line; conditions: cited from earlier work
[5] = system: renal fibrosis; conditions: compared with LPA1 (−/−) mice; cited from earlier work

T1 sequence (Q92633 whole entry): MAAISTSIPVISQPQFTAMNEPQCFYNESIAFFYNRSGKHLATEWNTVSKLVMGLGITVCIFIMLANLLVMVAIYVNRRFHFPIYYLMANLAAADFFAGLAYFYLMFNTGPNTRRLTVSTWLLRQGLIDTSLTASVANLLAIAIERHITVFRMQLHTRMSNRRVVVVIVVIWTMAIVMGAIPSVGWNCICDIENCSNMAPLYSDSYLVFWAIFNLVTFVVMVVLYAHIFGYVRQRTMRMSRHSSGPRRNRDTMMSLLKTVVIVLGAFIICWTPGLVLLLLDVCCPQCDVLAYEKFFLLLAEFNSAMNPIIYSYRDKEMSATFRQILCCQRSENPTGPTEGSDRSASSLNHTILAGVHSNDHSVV

SMILES	pIC50 [2]	other results
Cc1noc(-c2ccc(-c3ccc(C4(C(=O)O)CC4)cc3)cc2)c1C(O)c1cn(Cc2ccccc2)nn1 (single isomer, unassigned) [Compound 19, 1-(4′-{4-[(1-Benzyl-1H-[1,2,3]triazol-4-yl)-hydroxy-methyl]-3-methyl-isoxazol-5-yl}-biphenyl-4-yl)-cyclopropanecarboxylic acid]		collagen concentration in broncheoalveolar lavage fluid (BALF) [1]: significantly reduced; total protein concentration in broncheoalveolar lavage fluid (BALF) [1]: significantly reduced
COc1ccc(F)cc1-c1cccc(Nc2c(C)noc2-c2ccc(-c3ccc(C4(C(=O)O)CC4)cc3)cc2)n1 [Compound 75, 1-(4′-{4-[6-(5-Fluoro-2-methoxy-phenyl)-pyridin-2-ylamino]-3-methyl-isoxazol-5-yl}-biphenyl-4-yl)-cyclopropanecarboxylic acid]	> 7.00	
Cc1noc(-c2ccc(-c3ccc(C4(C(=O)O)CC4)cc3)cc2)c1Nc1cccc(-c2cc(F)ccc2Cl)n1 [Compound 79, 1-(4′-{4-[6-(2-Chloro-5-fluoro-phenyl)-pyridin-2-ylamino]-3-methyl-isoxazol-5-yl}-biphenyl-4-yl)-cyclopropanecarboxylic acid]	> 7.00	
Cc1noc(-c2ccc(-c3ccc(C4(C(=O)O)CC4)cc3)cc2)c1Nc1cccc(-c2cccc(F)c2Cl)n1 [Compound 81, 1-(4′-{4-[6-(2-Chloro-3-fluoro-phenyl)-pyridin-2-ylamino]-3-methyl-isoxazol-5-yl}-biphenyl-4-yl)-cyclopropanecarboxylic acid]	> 7.00	
Cc1noc(-c2ccc(-c3ccc(C4(C(=O)O)CC4)cc3)cc2)c1Nc1cncc(-c2cccc(F)c2Cl)c1 [Compound 82, 1-(4′-{4-[5-(2-Chloro-3-fluoro-phenyl)-pyridin-3-ylamino]-3-methyl-isoxazol-5-yl}-biphenyl-4-yl)-cyclopropanecarboxylic acid]	> 7.00	
Cc1noc(-c2ccc(-c3ccc(C4(C(=O)O)CC4)cc3)cc2)c1Nc1cccc(-c2cccc(F)c2C)n1 [Compound 83, 1-(4′-{4-[6-(3-Fluoro-2-methyl-phenyl)-pyridin-2-ylamino]-3-methyl-isoxazol-5-yl}-biphenyl-4-yl)-cyclopropanecarboxylic acid]	> 7.00	
Cc1noc(-c2ccc(-c3ccc(C4(C(=O)O)CC4)cc3)cc2)c1Nc1cccc(-c2cccc(C(F)(F)F)c2Cl)n1 [Compound 84, 1-(4′-{4-[6-(2-Chloro-3-trifluoromethyl-phenyl)-pyridin-2-ylamino]-3-methyl-isoxazol-5-yl}-biphenyl-4-yl)-cyclopropanecarboxylic acid]		pIC50 [3]: 6.00 to 6.52
Cc1noc(-c2ccc(-c3ccc(C4(C(=O)NS(C)(=O)=O)CC4)cc3)cc2)c1Nc1cccc(Cc2ccccc2)n1 [Compound 95, N-(1-{4′-[4-(6-Benzyl-pyridin-2-ylamino)-3-methyl-isoxazol-5-yl]-biphenyl-4-yl}-cyclopropanecarbonyl)-methanesulfonamide]	> 7.00	
Cc1noc(-c2ccc(CSCCC(=O)O)cc2)c1NC(=O)OC(C)c1ccccc1Cl (centres unmarked) [Ki16425]		LPA-induced and ascites-induced invasion activity [4]: blocked; development of renal fibrosis in UUO mice [5]: closely resembled the LPA1 (−/−) mice
